25 molecules from patent publication US10287301B2 (Achillion Pharmaceuticals, Inc., priority 2015, dated 2019) can be followed below.

pIC50: −log10 of the molar value. Some results are limits rather than exact numbers.

The target of the first experiment is Human Factor D (Homo sapiens (Human), UniProt P00746). Briefly: Human Factor D Assay. The experiment is classed as biochemical.
Chain of Human Factor D (P00746 26-253): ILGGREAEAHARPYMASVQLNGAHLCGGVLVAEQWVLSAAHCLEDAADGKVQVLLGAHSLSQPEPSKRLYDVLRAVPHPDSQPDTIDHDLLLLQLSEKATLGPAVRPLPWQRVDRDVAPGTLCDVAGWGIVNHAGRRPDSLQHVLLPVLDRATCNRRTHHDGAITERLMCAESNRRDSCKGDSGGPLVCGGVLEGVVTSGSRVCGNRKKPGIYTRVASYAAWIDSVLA
Conditions: not given
A digest of the protocol:
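Factor D (from human serum) 80 nM final + cpd, 5 min RT, 50 mM Tris/1M NaCl pH 7.5; add Z-L-Lys-SBzl 100 μM and DTNB 100 μM final. IC50 by nonlinear fit of rates vs [cpd].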
On to `NC(=O)c1nn(CC(=O)N2C[C@H](F)C[C@H]2C(=O)Nc2ncc(Br)cn2)c2ccc(-c3ccnnc3)cc12` [Compound 109, 1-(2-((2S,4R)-2-(5-bromopyrimidin-2-ylcarbamoyl)-4-fluoropyrrolidin-1-yl)-2-oxoethyl)-5-(pyridazin-4-yl)-1H-indazole-3-carboxamide], for which the pIC50 is 5.00 to 6.00.

The experiment is the same for the next values; noted with them: Human Factor D 80 nM, substrate Z-L-Lys-SBzl; read-out: IC50.
For the molecule `CC(=O)c1cn(CC(=O)N2C[C@H](F)C[C@H]2C(=O)Nc2cncc(Cl)n2)c2ccc(-c3ccnnc3)cc12` [Compound 88, (2S,4R)-1-(2-(3-acetyl-5-(pyridazin-4-yl)-1H-indol-1-yl)acetyl)-N-(6-chloropyrazin-2-yl)-4-fluoropyrrolidine-2-carboxamide], the pIC50 was more than 6.00.
The same measure, in the same setting: the same measure for `NC(=O)c1nn(CC(=O)N2C[C@H](F)C[C@H]2C(=O)Nc2cncc(Cl)n2)c2ccc(-c3ccnnc3)cc12` [Compound 89, 1-(2-((2S,4R)-2-(6-chloropyrazin-2-ylcarbamoyl)-4-fluoropyrrolidin-1-yl)-2-oxoethyl)-5-(pyridazin-4-yl)-1H-indazole-3-carboxamide]: more than 6.00.
Same read-out and setting: then `NC(=O)c1nn(CC(=O)N2C[C@H](F)C[C@H]2C(=O)Nc2ccc(F)c(-c3nnc4n3CCCCC4)c2)c2ccc(-c3ccnnc3)cc12` [Compound 91, 1-(2-((2S,4R)-4-fluoro-2-(4-fluoro-3-(6,7,8,9-tetrahydro-5H-[1,2,4]triazolo[4,3-a]azepin-3-yl)phenylcarbamoyl)pyrrolidin-1-yl)-2-oxoethyl)-5-(pyridazin-4-yl)-1H-indazole-3-carboxamide], with less than 5.00; and `CC(=O)c1cn(CC(=O)N2C[C@H](F)C[C@H]2C(=O)Nc2ccc(F)c(-c3nnc4n3CCCCC4)c2)c2ccc(-c3ccnnc3)cc12` [Compound 92, (2S,4R)-1-(2-(3-acetyl-5-(pyridazin-4-yl)-1H-indol-1-yl)acetyl)-4-fluoro-N-(4-fluoro-3-(6,7,8,9-tetrahydro-5H-[1,2,4]triazolo[4,3-a]azepin-3-yl)phenyl) pyrrolidine-2-carboxamide], with more than 6.00.
Still for that read-out and setting: the same measure for `NC(=O)c1nn(CC(=O)N2C[C@H](F)C[C@H]2C(=O)Nc2cccc(Cl)c2C(F)(F)F)c2ccc(-c3ccnnc3)cc12` [Compound 93, 1-(2-((2S,4R)-2-(3-chloro-2-(trifluoromethyl)phenylcarbamoyl)-4-fluoropyrrolidin-1-yl)-2-oxoethyl)-5-(pyridazin-4-yl)-1H-indazole-3-carboxamide]: less than 5.00; for `NC(=O)c1nn(CC(=O)N2C[C@H](F)C[C@H]2C(=O)Nc2c[nH]nc2-c2ccc(Cl)cc2Cl)c2ccc(-c3ccnnc3)cc12` [Compound 94, 1-(2-((2S,4R)-2-(3-(2,4-dichlorophenyl)-1H-pyrazol-4-ylcarbamoyl)-4-fluoropyrrolidin-1-yl)-2-oxoethyl)-5-(pyridazin-4-yl)-1H-indazole-3-carboxamide]: less than 5.00.
For `CC(=O)c1cn(CC(=O)N2C[C@H](F)C[C@H]2C(=O)Nc2cccc(Cl)c2-n2cncn2)c2ccc(-c3ccnnc3)cc12` [Compound 95, (2S,4R)-1-(2-(3-acetyl-5-(pyridazin-4-yl)-1H-indol-1-yl)acetyl)-N-(3-chloro-2-(1H-1,2,4-triazol-1-yl)phenyl)-4-fluoropyrrolidine-2-carboxamide], the negative logarithm of the IC50 (pIC50) was less than 5.00.
As to `NC(=O)c1nn(CC(=O)N2C[C@H](F)C[C@H]2C(=O)Nc2cccc(Cl)c2-n2cncn2)c2ccc(-c3ccnnc3)cc12` [Compound 96, 1-(2-((2S,4R)-2-(3-chloro-2-(1H-1,2,4-triazol-1-yl)phenylcarbamoyl)-4-fluoropyrrolidin-1-yl)-2-oxoethyl)-5-(pyridazin-4-yl)-1H-indazole-3-carboxamide], the pIC50 was less than 5.00.
Same read-out and setting: the same measure for `CC(=O)c1cn(CC(=O)N2C[C@H](F)C[C@H]2C(=O)Nc2cc(C)nc3nc(C(F)(F)F)nn23)c2ccc(-c3ccnnc3)cc12` [Compound 97, (2S,4R)-1-(2-(3-acetyl-5-(pyridazin-4-yl)-1H-indol-1-yl)acetyl)-4-fluoro-N-(5-methyl-2-(trifluoromethyl)-[1,2,4]triazolo[1,5-a]pyrimidin-7-yl)pyrrolidine-2-carboxamide]: less than 5.00.
In the case of `Cn1cnnc1-c1ccccc1NC(=O)[C@@H]1C[C@@H](F)CN1C(=O)Cn1nc(C(N)=O)c2cc(-c3ccnnc3)ccc21` [Compound 98, 1-(2-((2S,4R)-4-fluoro-2-(2-(4-methyl-4H-1,2,4-triazol-3-yl)phenylcarbamoyl)pyrrolidin-1-yl)-2-oxoethyl)-5-(pyridazin-4-yl)-1H-indazole-3-carboxamide], the pIC50 is less than 5.00.
On to `CC(=O)c1cn(CC(=O)N2C[C@H](F)C[C@H]2C(=O)Nc2nc(-c3ccccc3Cl)ns2)c2ccc(-c3ccnnc3)cc12` [Compound 99, (2S,4R)-1-(2-(3-acetyl-5-(pyridazin-4-yl)-1H-indol-1-yl)acetyl)-N-(3-(2-chlorophenyl)-1,2,4-thiadiazol-5-yl)-4-fluoropyrrolidine-2-carboxamide], for which the pIC50 is more than 6.00.
Same read-out and setting: then `CC(=O)c1cn(CC(=O)N2C[C@H](F)C[C@H]2C(=O)Nc2cccc(Br)n2)c2ccc(-c3ccccc3Cl)cc12` [Compound 100, (2S,4R)-1-(2-(3-acetyl-5-(2-chlorophenyl)-1H-indol-1-yl)acetyl)-N-(6-bromopyridin-2-yl)-4-fluoropyrrolidine-2-carboxamide], with more than 6.00; and `Cc1ncc(-c2ccc3c(c2)c(C(N)=O)nn3CC(=O)N2C[C@H](F)C[C@H]2C(=O)Nc2cccc(Br)n2)cn1` [Compound 101, 1-(2-((2S,4R)-2-(6-bromopyridin-2-ylcarbamoyl)-4-fluoropyrrolidin-1-yl)-2-oxoethyl)-5-(2-methylpyrimidin-5-yl)-1H-indazole-3-carboxamide], with more than 6.00; and `CC(=O)c1cn(CC(=O)N2C[C@H](F)C[C@H]2C(=O)Nc2cccc(-c3ccccc3Cl)c2F)c2ccc(-c3cnc(C)nc3)cc12` [Compound 102, (2S,4R)-1-(2-(3-acetyl-5-(2-methylpyrimidin-5-yl)-1H-indol-1-yl)acetyl)-N-(2′-chloro-2-fluorobiphenyl-3-yl)-4-fluoropyrrolidine-2-carboxamide], with more than 6.00.
Same read-out and setting: the same measure for `Cc1ncc(-c2ccc3c(c2)c(C(N)=O)nn3CC(=O)N2C[C@H](F)C[C@H]2C(=O)Nc2cccc(-c3ccccc3Cl)c2F)cn1` [Compound 103]: more than 6.00; for `NC(=O)c1nn(CC(=O)N2C[C@H](F)C[C@H]2C(=O)Nc2cccc3c2CN(c2ccccn2)C3)c2ccc(-c3ccnnc3)cc12` [Compound 104, 1-(2-((2S,4R)-4-fluoro-2-(2-(pyridin-2-yl)isoindolin-4-ylcarbamoyl)pyrrolidin-1-yl)-2-oxoethyl)-5-(pyridazin-4-yl)-1H-indazole-3-carboxamide]: less than 5.00; for `CC(=O)c1cn(CC(=O)N2C[C@H](F)C[C@H]2C(=O)Nc2cccc3c2CN(c2ccccn2)C3)c2ccc(-c3ccnnc3)cc12` [Compound 105, (2S,4R)-1-(2-(3-acetyl-5-(pyridazin-4-yl)-1H-indol-1-yl)acetyl)-4-fluoro-N-(2-(pyridin-2-yl)isoindolin-4-yl)pyrrolidine-2-carboxamide]: less than 5.00.
Same read-out and setting: then `CC(=O)c1cn(CC(=O)N2C[C@H](F)C[C@H]2C(=O)NC2CCCc3nc(-c4ccc(F)cc4)sc32)c2ccc(-c3ccnnc3)cc12` (stereo partly drawn) [Compound 106, (2S,4R)-1-(2-(3-acetyl-5-(pyridazin-4-yl)-1H-indol-1-yl)acetyl)-4-fluoro-N-(2-(4-fluorophenyl)-4,5,6,7-tetrahydrobenzo[d]thiazol-7-yl)pyrrolidine-2-carboxamide], with less than 5.00; and `NC(=O)c1nn(CC(=O)N2C[C@H](F)C[C@H]2C(=O)NC2CCCc3nc(-c4ccc(F)cc4)sc32)c2ccc(-c3ccnnc3)cc12` (stereo partly drawn) [Compound 107, 1-(2-((2S,4R)-4-fluoro-2-(2-(4-fluorophenyl)-4,5,6,7-tetrahydrobenzo[d]thiazol-7-ylcarbamoyl)pyrrolidin-1-yl)-2-oxoethyl)-5-(pyridazin-4-yl)-1H-indazole-3-carboxamide], with less than 5.00; and `CC(=O)c1cn(CC(=O)N2C[C@H](F)C[C@H]2C(=O)Nc2ccc3ccccc3c2)c2ccc(-c3ccnnc3)cc12` [Compound 110, (2S,4R)-1-(2-(3-acetyl-5-(pyridazin-4-yl)-1H-indol-1-yl)acetyl)-4-fluoro-N-(naphthalen-2-yl)pyrrolidine-2-carboxamide], with less than 5.00.
Turning to `NC(=O)c1nn(CC(=O)N2C[C@H](F)C[C@H]2C(=O)Nc2noc3cc(C(F)(F)F)ccc23)c2ccc(-c3ccnnc3)cc12` [Compound 112, 1-(2-((2S,4R)-4-fluoro-2-(6-(trifluoromethyl)benzo[d]isoxazol-3-ylcarbamoyl)pyrrolidin-1-yl)-2-oxoethyl)-5-(pyridazin-4-yl)-1H-indazole-3-carboxamide], the pIC50 is less than 5.00.
The same measure, in the same setting: the same measure for `Cc1cc(NC(=O)[C@@H]2C[C@@H](F)CN2C(=O)Cn2nc(C(N)=O)c3cc(-c4ccnnc4)ccc32)n2nc(C(F)(F)F)nc2n1` [Compound 113, 1-(2-((2S,4R)-4-fluoro-2-(5-methyl-2-(trifluoromethyl)-[1,2,4]triazolo[1,5-a]pyrimidin-7-ylcarbamoyl)pyrrolidin-1-yl)-2-oxoethyl)-5-(pyridazin-4-yl)-1H-indazole-3-carboxamide]: less than 5.00.
The same measure, in the same setting: then `NC(=O)c1nn(CC(=O)N2C[C@H](F)C[C@H]2C(=O)Nc2nnc(-c3ccccc3Cl)s2)c2ccc(-c3ccnnc3)cc12` [Compound 115, 1-(2-((2S,4R)-2-(5-(2-chlorophenyl)-1,3,4-thiadiazol-2-ylcarbamoyl)-4-fluoropyrrolidin-1-yl)-2-oxoethyl)-5-(pyridazin-4-yl)-1H-indazole-3-carboxamide], with less than 5.00; and `CC(=O)c1cn(CC(=O)N2C[C@H](F)C[C@H]2C(=O)Nc2nnc(-c3ccc(Cl)c(Cl)c3)s2)c2ccc(-c3ccnnc3)cc12` [Compound 117, (2S,4R)-1-(2-(3-acetyl-5-(pyridazin-4-yl)-1H-indol-1-yl)acetyl)-N-(5-(3,4-dichlorophenyl)-1,3,4-thiadiazol-2-yl)-4-fluoropyrrolidine-2-carboxamide], with less than 5.00.

For orientation: pIC50 means the negative decadic logarithm of the IC50, by convention in mol/L.
